In patent publication US12281083B2, “2-substituted amino-naphth (1,2-d) imidazol-5-one compounds of pharmaceutically acceptable salts thereof” (PTC Therapeutics, Inc., priority 2016, dated 2025):

System: Friedreich ataxia patient-derived human dermal fibroblasts
Experiment: Cell viability evaluation test using human dermal fibroblasts derived from a Friedreich ataxia patient (BSO stress)
Type: cell-based
Details: Fibroblast, rescue of cell viability, 30 μM BSO, 48 hours, Calcein-AM fluorescence, no BSO = 100%, BSO only = 0%
Description: Cell Viability Evaluation Test Using Human Dermal Fibroblasts Derived from a Friedreich Ataxia Patient
Compounds described herein were tested for their ability to rescue Friedreich ataxia patient-derived dermal fibroblasts stressed by the addition of L-buthionine-(S,R)-sulfoximine (BSO).
A MEMα medium and a Medium 199 medium were obtained from Thermo Scientific, and fetal bovine serum was obtained from DS Pharma. Basic fibroblast growth factor (b-FGF) was purchased from Funakoshi Co., Ltd. and epidermal growth factor (EGF) was purchased from PeproTech Inc. L-Buthionine-(S,R)-sulfoximine and bovine pancreas-derived insulin were purchased from Sigma. Calcein-AM was purchased from DOJINDO. An assay medium is a medium of 64% MEMα medium and 25% Medium 199 medium, and contains 10% fetal bovine serum, EGF whose final concentration is 10 ng/ml, 10 ng/ml of bFGF, and 10 μg/mL insulin. Cells were purchased from Coriell Institute.
A test compound was dissolved in DMSO to make a 1 mM or 10 mM stock solution. From this stock solution, serially diluted solutions were further prepared using DMSO and used in an assay.
Friedreich ataxia patient-derived human dermal fibroblasts were suspended in an assay medium, seeded into a 384-well plate at 650 cells/well/20 μl, and incubated at 37° C. in a 5% carbon dioxide incubator overnight. A test compound solution prepared in an assay medium from the serially diluted solution (DMSO) at 5 times higher than the final concentration was added in 10 μL per well of the cell-seeded plate. Then, 10 μL of 150 μM BSO solution was added. The amount of a reaction solution was adjusted to be finally 50 μL, and the final BSO concentration was made at 30 μM. The plate was incubated at 37° C. in 5% CO2 for 48 hours, and then media were removed from all wells, and 20 μl of a Calcein-AM solution, which had been 550-fold diluted by PBS, was added to each well. The plate was incubated at 37° C. for 20 to 30 minutes, and then fluorescence (485 nm/525 nm of excitation/radiation wavelength) was measured by a fluorescence plate reader.
The degree of the viability of fibroblasts that were not treated with BSO was regarded as 100%, the degree of the viability of cells that were treated with BSO only (without a compound) was regarded as 0%, and the viability of cells that were treated with a compound was calculated.

Row | SMILES | EC50
1 | CN(C)C1=NC2=C(c3ccc(N(C)C)cc3)C(=O)c3ccccc3C2=N1 [Example 72] | 0.02 to 0.1 µM
2 | Cc1nc(-c2ccccc2)sc1C1=C2N=C(N(C)C)N=C2c2ccccc2C1=O [Example 78] | > 0.1 µM
3 | CCN(CC)C1=NC2=C(c3cccc4cn[nH]c34)C(=O)c3ccccc3C2=N1 [Example 51] | 0.0118 µM
4 | CCN(CC)C1=NC2=C(c3cccc(OC)c3C)C(=O)c3ccccc3C2=N1 [Example 88] | 0.0171 µM
5 | COc1ccc(C2=C3N=C(N(C)C)N=C3c3ccccc3C2=O)cc1 [Example 1, 2-(Dimethylamino)-4-(4-methoxyphenyl)-5H-naphth[1,2-d]imidazol-5-one] | 0.02 to 0.1 µM
6 | CN(C)C(=O)c1cccc(C2=C3N=C(N(C)C)N=C3c3ccccc3C2=O)c1 [Example 41] | 0.0129 µM
7 | CN(C)C1=NC2=C(c3ccccc3N3CCOCC3)C(=O)c3ccccc3C2=N1 [Example 11] | 0.0064 µM
8 | COc1ccc(F)c(C2=C3N=C(N(C)C)N=C3c3ccccc3C2=O)c1 [Example 90] | 0.014 µM
9 | Cc1c(C2=C3N=C(N(C)C)N=C3c3ccccc3C2=O)cnn1-c1ccccc1 [Example 76] | 0.0203 µM
10 | CCN(CC)C1=NC2=C(c3c(C)noc3C)C(=O)c3ccccc3C2=N1 [Example 46] | 0.0149 µM
11 | COc1cccc(C2=C3N=C(N(C)C)N=C3c3ccccc3C2=O)c1Cl [Example 94] | 0.0226 µM
12 | Cc1noc(C)c1C1=C2N=C(N3CCOCC3)N=C2c2ccccc2C1=O [Example 47] | 0.0049 µM
13 | CCN(CC)C1=NC2=C(c3cccc(OC)c3F)C(=O)c3ccccc3C2=N1 [Example 93] | 0.0291 µM
14 | CN(C)C1=NC2=C(c3ccc(N4CCOCC4)cc3)C(=O)c3ccccc3C2=N1 [Example 40] | 0.0116 µM
15 | Cc1cc(F)ccc1C1=C2N=C(N(C)C)N=C2c2ccccc2C1=O [Example 21] | 0.0079 µM
16 | COc1cccc(C2=C3N=C(N(C)C)N=C3c3ccccc3C2=O)c1F [Example 92] | 0.0302 µM
17 | CN(C)C1=NC2=C(c3ccccc3N3CCNCC3)C(=O)c3ccccc3C2=N1 [Example 73] | 0.0072 µM
18 | CC(=O)c1ccc(C2=C3N=C(N(C)C)N=C3c3ccccc3C2=O)c(C)c1 [Example 89] | 0.0143 µM
19 | CN(C)C1=NC2=C(c3ccc4c(c3)OCCN4C)C(=O)c3ccccc3C2=N1 [Example 77] | 0.017 µM
20 | COc1ccc(C2=C3N=C(N(C)C)N=C3c3ccccc3C2=O)c(C(F)(F)F)c1 [Example 31] | 0.015 µM

Row | SMILES | EC50
21 | Cc1noc(C)c1C1=C2N=C(N(C)C)N=C2c2ccccc2C1=O [Example 39] | 0.0061 µM
22 | CN(C)C1=NC2=C(c3ccc4c(c3)OCCCO4)C(=O)c3ccccc3C2=N1 [Example 79] | 0.0391 µM
23 | COc1ccc(C2=C3N=C(N(C)C)N=C3c3ccccc3C2=O)c(Cl)c1 [Example 82] | 0.0165 µM
24 | CCOc1ccc(C2=C3N=C(N(C)C)N=C3c3ccccc3C2=O)c(C)c1 [Example 63] | 0.0184 µM
25 | CCN(CC)C(=O)c1ccccc1C1=C2N=C(N(CC)CC)N=C2c2ccccc2C1=O [Example 68] | 0.0405 µM
26 | COc1ccc(C2=C3N=C(N(C)C)N=C3c3ccccc3C2=O)c(F)c1 [Example 8] | 0.01 µM
27 | CN(C)C1=NC2=C(c3ccccc3C#N)C(=O)c3ccccc3C2=N1 [Example 71, 2-[(2-dimethylamino)-5-oxo-5H-naphth[1,2-d]imidazol-4-yl]benzonitrile] | 0.015 µM
28 | CN1CCN(c2ccc(C3=C4N=C(N(C)C)N=C4c4ccccc4C3=O)cc2)CC1 [Example 80] | 0.01 µM
29 | Cc1cc(OC(F)(F)F)ccc1C1=C2N=C(N(C)C)N=C2c2ccccc2C1=O [Example 26] | 0.0072 µM
30 | CN(C)C1=NC2=C(c3ccccc3Cl)C(=O)c3ccccc3C2=N1 [Example 33] | 0.016 µM
31 | Cc1cc(C(F)(F)F)ccc1C1=C2N=C(N(C)C)N=C2c2ccccc2C1=O [Example 23] | 0.0059 µM
32 | Cc1nn(C)c(C)c1C1=C2N=C(N(C)C)N=C2c2ccccc2C1=O [Example 35] | 0.0025 µM
33 | Cc1cnccc1C1=C2N=C(N(C)C)N=C2c2ccccc2C1=O [Example 28] | 0.0048 µM
34 | COCc1cccc(C2=C3N=C(N(C)C)N=C3c3ccccc3C2=O)c1 [Example 43] | 0.0201 µM
35 | CN(C)C1=NC2=C(c3ccccc3N3CCCC3)C(=O)c3ccccc3C2=N1 [Example 13] | 0.0054 µM
36 | Cc1ccc(C2=C3N=C(N(C)C)N=C3c3ccccc3C2=O)c(C)c1 [Example 44] | 0.017 µM
37 | Cc1ccccc1C1=C2N=C(N(C)C)N=C2c2ccccc2C1=O [Example 4] | 0.0037 µM
38 | CN(C)C1=NC2=C(c3cccc4cccnc34)C(=O)c3ccccc3C2=N1 [Example 14] | 0.041 µM
39 | Cc1cccc(C2=C3N=C(N(C)C)N=C3c3ccccc3C2=O)c1 [Example 15] | 0.006 µM
40 | CN(C)C1=NC2=C(c3ccccc3F)C(=O)c3ccccc3C2=N1 [Example 5] | 0.014 µM

Row | SMILES | EC50
41 | Cc1ccncc1C1=C2N=C(N(C)C)N=C2c2ccccc2C1=O [Example 32] | 0.006 µM
42 | COc1ccc(C)c(C2=C3N=C(N(C)C)N=C3c3ccccc3C2=O)c1 [Example 83] | 0.0183 µM
43 | Cc1nn(C)cc1C1=C2N=C(N(C)C)N=C2c2ccccc2C1=O [Example 75] | 0.0121 µM
44 | CN(C)C1=NC2=C(c3ccccc3C(F)(F)F)C(=O)c3ccccc3C2=N1 [Example 20] | < 0.003 µM
45 | CN(C)C1=NC2=C(c3ccccc3N(C)C)C(=O)c3ccccc3C2=N1 [Example 17] | 0.0085 µM
46 | CC(=O)Nc1cccc(C2=C3N=C(N(C)C)N=C3c3ccccc3C2=O)c1 [Example 59] | 0.004 µM
47 | CC(C)N1CCN(c2ccc(C3=C4N=C(N(C)C)N=C4c4ccccc4C3=O)cc2)CC1 [Example 74] | < 0.003 µM
48 | COc1ccccc1C1=C2N=C(N(C)C)N=C2c2ccccc2C1=O [Example 10] | 0.0051 µM
49 | COc1cccc(F)c1C1=C2N=C(N(C)C)N=C2c2ccccc2C1=O [Example 12] | 0.0064 µM
50 | CN(C)C1=NC2=C(c3cnn(C)c3)C(=O)c3ccccc3C2=N1 [Example 38] | 0.0188 µM
51 | Cc1ccc(C2=C3N=C(N(C)C)N=C3c3ccccc3C2=O)cc1 [Example 2] | 0.017 µM
52 | Cc1cc(N2CCN(C)CC2)ccc1C1=C2N=C(N(C)C)N=C2c2ccccc2C1=O [Example 62] | 0.0055 µM
53 | COc1ccc(Cl)c(C2=C3N=C(N(C)C)N=C3c3ccccc3C2=O)c1 [Example 86] | 0.0149 µM
54 | CN(C)C1=NC2=C(c3nn(C)c4ccccc34)C(=O)c3ccccc3C2=N1 [Example 42] | 0.0051 µM
55 | COc1cccc(C2=C3N=C(N(C)C)N=C3c3ccccc3C2=O)c1C [Example 87] | 0.0171 µM
56 | Cc1ncccc1C1=C2N=C(N(C)C)N=C2c2ccccc2C1=O [Example 34] | 0.007 µM
57 | CN(C)C1=NC2=C(c3ccc4cnn(C)c4c3)C(=O)c3ccccc3C2=N1 [Example 56] | 0.0145 µM
58 | COc1ccc(C2=C3N=C(N(C)C)N=C3c3ccccc3C2=O)c(C)c1 [Example 16] | 0.0091 µM
59 | COc1ccc(C2=C3N=C(N(C)C)N=C3c3ccccc3C2=O)cn1 [Example 3] | < 0.02 µM
60 | Cc1cc(C#N)ccc1C1=C2N=C(N(C)C)N=C2c2ccccc2C1=O [Example 36] | 0.0095 µM
